Molecular target: T1, TyrB (aromatic amino acid aminotransferase) (Escherichia coli, UniProt P04693)
T1 construct: recombinant, purified from E. coli
T1 sequence (P04693 1-397): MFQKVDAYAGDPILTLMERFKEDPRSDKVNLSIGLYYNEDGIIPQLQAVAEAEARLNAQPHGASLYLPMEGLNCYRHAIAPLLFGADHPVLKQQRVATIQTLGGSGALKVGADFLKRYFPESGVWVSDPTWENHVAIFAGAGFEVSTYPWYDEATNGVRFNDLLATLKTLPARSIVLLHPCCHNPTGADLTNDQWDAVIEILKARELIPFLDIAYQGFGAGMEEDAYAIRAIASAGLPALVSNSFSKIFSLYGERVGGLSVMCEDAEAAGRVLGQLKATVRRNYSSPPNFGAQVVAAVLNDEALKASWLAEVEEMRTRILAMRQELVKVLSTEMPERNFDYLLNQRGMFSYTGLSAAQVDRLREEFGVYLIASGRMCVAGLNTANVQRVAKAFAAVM
Experiment: in vitro cascade of purified PpLTA, RpTD and TyrB
Format: biochemical
Conditions: final transamination step

SMILES	in vitro cascade of purified PpLTA, RpTD and TyrB (from 1 mM para-iodobenzaldehyde)	in vitro cascade of purified PpLTA, RpTD and TyrB (from 1 mM para-methylbenzaldehyde)
N[C@@H](Cc1ccc(I)cc1)C(=O)O [compound 19, p-iodophenylalanine]	the enzyme cascade efficiently converted the substrates into their corresponding amino acids	–
Cc1ccc(C[C@H](N)C(=O)O)cc1 [p-methylphenylalanine]	–	the enzyme cascade efficiently converted the substrates into their corresponding amino acids

From paper PMC12480666, “A robust platform streamlining aromatic noncanonical amino acid biosynthesis and genetic code expansion in Escherichia coli” (Nature Communications, 2025)
